The text below walks through data of patent US5652363A, “Pyrido-1,4-oxazinylalkyl-benzamide derivatives” (C.D. Searle & Co., priority 1996, dated 1997).

The assay addresses T1, PAF receptor (Homo sapiens, UniProt P25105).
T1 construct: tissue Lifesource, Inc. (Glenview, Ill.); host or cells: human platelets (membrane preparation)
The assay is described as follows: Human Platelet Receptor Binding Assay ([3H]PAF binding to human platelet membrane preparation). Conditions: inhibition of specific binding of 0.75 nM [3H]PAF to human platelet membranes, 30 minutes at 24° C.; read-out: PAF Inhibitor Activity Human Platelet Receptor Assay. The protocol: Human Platelet Receptor Binding Assay
Compounds of the invention were evaluated for their ability to inhibit specific binding of [^3 H]PAF to human platelet membrane preparation. Human packed platelets were obtained from Lifesource, Inc. (Glenview, Ill.) and washed 3 times with 10 mM Trizma pH 7.0, 2 mM EDTA (dipotassium salt), 150 mM KCl and then once with 10 mM Trizma 7.4, 20 mM CaCl2. The platelets were broken by freezing in a dry ice-ethanol bath, followed by thawing in 24° C. water baths. The preparation was centrifuged (40,000×g, 20 minutes, 4° C.) and the pellet suspended in 10 mM Trizma 7.4, 20 mM CaCl2, 5 mg/ml human albumin. Protein concentration in the platelet membrane preparation was determined by the Lowry method [O. H. Lowry et al., J. Biol. Chem., 193, 265-275 (1951)]. Aliquots of the membrane preparation were stored at -70° C. Each preparation was characterized for PAF receptor number and dissociation constant (Kd). In binding assays 5 μl of test compound, solubilized in DMSO, was added to polypropylene tubes along with 0.75 nM [^3 H]PAF and 200 mcl [0.075 nM] of membranes and 95 μl 10 mM Trizma 7.4, 20 mM CaCl2, 5 mg/ml human albumin-Tubes were incubated for 30 minutes at 24° C. The incubation was terminated by adding 4 ml of ice-cold 10 mM Trizma pH 7.4, 20 mM CaCl2 and 20 mg/ml BSA prior to vacuum filtration using Whatman GF/C filters. Filters were prepared and counted in a scintillation counter. All DPM values (disintergrations per minute) were corrected for background and isotope decay. Triplicate determinations for single doses were averaged. The amount of non-specific binding was subtracted from all dose averages, giving an amount of specific binding in all cases. The IC50 values for the compounds of the invention were determined by the Allfit program using percent displacement data. (Allfit is a `basic` computer program for simultaneous curve fitting of a family of signoidal dose-response curves using the four parameter logistic equation.) Results are shown in Table I. In Table 1 "c-pent" means cyclopentyl; "c-hex" means cyclohexyl; "i-Pr" means isopropyl; "Me" means methyl; and "OMe" means methoxy.

T1 sequence (P25105 whole entry): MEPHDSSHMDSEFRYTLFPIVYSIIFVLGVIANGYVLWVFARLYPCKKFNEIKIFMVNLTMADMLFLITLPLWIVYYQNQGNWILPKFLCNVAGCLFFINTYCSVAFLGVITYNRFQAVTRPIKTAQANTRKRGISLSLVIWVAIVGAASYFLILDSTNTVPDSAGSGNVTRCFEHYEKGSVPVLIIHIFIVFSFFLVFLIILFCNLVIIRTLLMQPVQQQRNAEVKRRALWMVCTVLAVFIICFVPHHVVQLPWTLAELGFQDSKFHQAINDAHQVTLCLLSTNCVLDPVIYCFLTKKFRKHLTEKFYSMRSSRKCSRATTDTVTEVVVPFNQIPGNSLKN

`Cc1cc(C(=O)N(C2CCCCC2)C2CCCC2)ccc1CN1CCOc2cnccc21` [Example 10, N-cyclohexyl-N-cyclopentyl-4-[(2,3-dihydro-1H-pyrido[3,4-b][1,4]oxazin-1-yl)methyl]-3-methyl-benzamide]: the IC50 stood at 219 nM.

Take `CC(C)N(C(=O)c1ccc(CN2CCOc3cnccc32)c(Br)c1)C1CCCCC1` [Example 11, 3-bromo-N-cyclohexyl-4-[(2,3-dihydro-1H-pyrido[3,4-b]-[1,4]oxazin-1-yl)methyl]-N-(1-methylethyl)benzamide]: the IC50 came out at 2 nM.

For `COc1cc(C(=O)N(C(C)C)C2CCCCC2)ccc1CN1C(=O)COc2ncccc21` [Example 17, N-cyclohexyl-4-[{2,3-dihydro-2-oxo-1H-pyrido(2,3-b)(1,4)oxazin-1-yl}methyl]-3-methoxy-N-(1-methylethyl)benzamide], the IC50 amounted to 505 nM.

On to `COc1cc(CN2CCOc3cnccc32)ccc1C(=O)N(C1CCCC1)[C@@H]1C[C@H](C)C[C@H](C)C1` [Example 9], for which the IC50 is 163 nM.
